Experimental data taken from patent publication US20040131701A1, “Method to treat infectious diseases and/or to enhance antimicrobial efficacy of drugs” (Virocell Inc., priority 2000, published 2004).

Tests used:
Type in all cases: cell-based
[1] = system: T-tropic strain HIV-1NL4-3; experiment: Replication of HIV-1 in Sup-T1 cells (p24 in culture supernatants); details: 10 days, all three tested concentrations
Source text: (§1) Fully infectious viral entities were generated by calcium phosphate transfection of 293T with pNL4-3 vector (T-tropic virions) as described below. Recombinant luciferase-encoding virus particles pseudotyped with the appropriate Env proteins have been used in our series of investigations. Such a system provides a highly sensitive and reproducible assay to monitor single-cycle viral infection events. This test is based on the molecular construct pNL4-3-Luc-E-R+, a vector that carries the gene for firefly luciferase inserted into the nef gene of the pNL4-3 provirus and contains also a frameshift at the 5′ end of env (nt 5950) that prevents expression of the envelope glycoproteins. […]
Sup-T1 cells were seeded at a density of 10^5 cells per well (100 μl) in 96-well flat-bottom, plates. […] Cells were incubated for 10 days and kinetics of viral infection was assessed by measuring in cell-free culture supernatants the major core viral p24 protein with the use of a commercial enzymatic assay (Organon Teknika). Putative toxicity of bpV molecules was assessed by adding the tetrazolium salt MTT to Sup-T1 cells that were cultured for 10 days under the constant pressure of the indicated concentrations of bpV[pic] and bpV[phen] molecules.

[2] = system: T-tropic recombinant luciferase-encoding HIV-1 particles; experiment: Infection of PM1 cells with luciferase reporter virus, T-tropic envelope; details: 5 min pretreatment, 72 h
Source text: as §1, with “glycoproteins. Progeny viruses were generated by cotransfecting 293T cells with pNL4-3-Luc-E-R+ and a plasmid DNA encoding for the appropriate envelope glycoproteins (T or macrophage-tropic). Briefly, a typical transfection experiment was performed as follow.” for “glycoproteins.”
(§2) In brief, 100 μl of cell-free supernatant were discarded from each well and 25 μl of cell culture lysis buffer 5×(125 mM Tris phosphate [pH 7.8], 10 mM DTT, 5% Triton X-100, and 50% glycerol) were added to the wells before incubation at room temperature for 30 min. […] Luciferase activity was monitored using a microplate luminometer (MLX; Dynex Technologies, Chantilly, Va.). […]

[3] = system: macrophage-tropic recombinant luciferase-encoding HIV-1 particles; experiment: Infection of PM1 cells with luciferase reporter virus, macrophage-tropic envelope; details: 5 min pretreatment, 72 h
Source text: as §1, with “glycoproteins. Progeny viruses were generated by cotransfecting 293T cells with pNL4-3-Luc-E-R+ and a plasmid DNA encoding for the appropriate envelope glycoproteins (T or macrophage-tropic). Briefly, a typical transfection experiment was performed as follow.” for “glycoproteins.”
as §2

primary human MDM = experiment: MTT toxicity in primary human MDM; details: 48 h, 20 μM
Source text: Target cells used in the present invention include human CD4-expressing T lymphoid Sup-T1, PM1, and Jurkat cells. Moreover, primary human monocyte-derived macrophages (MDM) and peripheral blood mononuclear cells (PBMC′) were also used in the current work, MDM were obtained using a standard technique. In brief, the mononuclear cell fraction was isolated by Ficoll-Hypaque centrifugation. Peripheral blood mononuclear cells were suspended in seeding medium (RPMI 1640+20% fetal calf serum+10% human serum type AB) in tissue culture 48-well plates (3×10^6 cells/ml and 500 μl per well). Five days after the initiation of the cultures, nonadherent cells were removed by rinsing the cultures three times with phosphate buffered saline. Next, such adherent cells were maintained in RPMI 1640 medium supplemented with 20% fetal calf serum.
Putative toxicity of bpV[pic] and bpV[phen] molecules was next assessed by adding the tetrazolium salt MTT to primary human MDM that were cultured for 48 h under the constant pressure of the indicated concentrations of bpV compounds.

K2[VO(O2)2pic].H2O [bpV[pic]]
HIV-1 production (p24) [1]: dramatic decrease of HIV-1 production | infection (luciferase activity) [2]: dose-dependent inhibition of infection | infection (luciferase activity) [3]: dose-dependent inhibition of infection | toxicity (MTT) (primary human MDM): toxic
